We go through eight molecules from PubChem BioAssay (NCI).

Some test systems named below: 786-0 renal; ACHN renal; CCRF-CEM leukemia; HL-60(TB) leukemia; HOP-62 NSCLC; MDA-MB-231 breast; NCI-H23 lung; PC-3 prostate; RXF 393 renal; SNB-75 CNS.
What all share (assay): growth of human tumour cells (NCI), 48 h

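96-well plates; 48 h exposure; 5 concentrations. Endpoints by linear interpolation between flanking doses. Not reached: highest tested concentration assigned. GI50: concentration for 50% inhibition of growth. TGI: concentration producing complete growth inhibition.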 Some results are limits rather than exact numbers.

With `COc1cc2c3c(n(CCCN=[N+]=[N-])c(=O)c2cc1OC)-c1ccc(N)cc1C3=O`, the GI50 with 786-0 renal is 160 nM; in the assay on ACHN renal it was 102 nM; with CCRF-CEM leukemia, 27.7 nM; in the assay on HL-60(TB) leukemia, 102 nM; in the assay with HOP-62 NSCLC, 118 nM; in the assay on MDA-MB-231 breast, 625 nM. For the same molecule, the GI50 was 170 nM with NCI-H23 lung, 270 nM with PC-3 prostate, 189 nM in the assay on RXF 393 renal and 126 nM in the assay on SNB-75 CNS. In addition, the TGI with 786-0 renal worked out at 431 nM; with ACHN renal, 1020 nM; in the assay with CCRF-CEM leukemia, 1100 nM; with HL-60(TB) leukemia, 1020 nM; in the assay with HOP-62 NSCLC, 666 nM; with MDA-MB-231 breast, 2180 nM. Moreover, the TGI with NCI-H23 lung is 730 nM; with PC-3 prostate it was 3580 nM; in the assay on RXF 393 renal it was 468 nM; in the assay with SNB-75 CNS it was 690 nM.
Regarding `C[C@H]1O[C@@H](O[C@H]2[C@@H](O)C[C@H](O[C@H]3[C@@H](O)C[C@H](O[C@H]4CC[C@]5(C)C6C[C@@H](O)[C@]7(C)[C@@H](C8=CC(=O)OC8)CC[C@]7(O)C6CC[C@@H]5C4)O[C@@H]3C)O[C@@H]2C)C[C@H](O)[C@@H]1O` (stereo not given in full), the GI50 is 60 nM in the assay with 786-0 renal; 22 nM in the assay with ACHN renal; 21.6 nM with CCRF-CEM leukemia; 34 nM in the assay with HL-60(TB) leukemia; 38 nM with HOP-62 NSCLC; 265 nM in the assay on MDA-MB-231 breast. The GI50 in the assay on NCI-H23 lung was 25.1 nM; in the assay with PC-3 prostate, 57.3 nM; in the assay with RXF 393 renal it was 63.4 nM; with SNB-75 CNS, 80 nM. For the same molecule, the TGI was found to be 160 nM with 786-0 renal; 115 nM in the assay with ACHN renal; 153 nM in the assay with CCRF-CEM leukemia; 120 nM in the assay on HL-60(TB) leukemia; 102 nM in the assay with HOP-62 NSCLC; 1320 nM in the assay with MDA-MB-231 breast. Further, the TGI was determined as 112 nM in the assay with NCI-H23 lung, 783 nM in the assay on PC-3 prostate, 198 nM with RXF 393 renal and 221 nM in the assay with SNB-75 CNS.
On to `O=C1C(=O)c2ccccc2C=C1[N+](=O)[O-]`, for which the TGI in the assay on 786-0 renal was more than 100000 nM; in the assay with ACHN renal it was more than 100000 nM; with CCRF-CEM leukemia, 86100 nM; in the assay with HL-60(TB) leukemia it was 54200 nM; in the assay on HOP-62 NSCLC, more than 100000 nM; in the assay on MDA-MB-231 breast it was 66500 nM. In addition, the TGI in the assay with NCI-H23 lung was more than 100000 nM; in the assay on PC-3 prostate, more than 100000 nM; with RXF 393 renal, 78900 nM; in the assay with SNB-75 CNS, more than 100000 nM.
As to `NC(=O)c1cccc(N)c1`, the GI50 with 786-0 renal, in the assay with ACHN renal, in the assay with CCRF-CEM leukemia, with HL-60(TB) leukemia, with HOP-62 NSCLC and with MDA-MB-231 breast was more than 100000 nM in each case. Further, the GI50 with NCI-H23 lung is more than 100000 nM; in the assay on PC-3 prostate it was more than 100000 nM; in the assay with RXF 393 renal, more than 100000 nM; with SNB-75 CNS, 74600 nM. Further, the TGI in the assay on 786-0 renal, in the assay on ACHN renal, with CCRF-CEM leukemia, in the assay with HL-60(TB) leukemia, with HOP-62 NSCLC and in the assay on MDA-MB-231 breast was more than 100000 nM each time. For the same molecule, the TGI with NCI-H23 lung, with PC-3 prostate, in the assay with RXF 393 renal and with SNB-75 CNS was more than 100000 nM each time.
As to `Cc1ccccc1NC(=O)N/C(N)=N/c1nc2ccccc2s1`, the GI50 in the assay with 786-0 renal is 64.6 nM; in the assay with ACHN renal, 72.9 nM; in the assay with CCRF-CEM leukemia, 40.2 nM; in the assay with HL-60(TB) leukemia it was 28.5 nM; with HOP-62 NSCLC, 110 nM; in the assay with MDA-MB-231 breast it was 892 nM. Moreover, the GI50 in the assay on NCI-H23 lung is 209 nM; with PC-3 prostate, 59 nM; in the assay on RXF 393 renal, 30 nM; in the assay with SNB-75 CNS, less than 16.5 nM. Also, the TGI in the assay with 786-0 renal was more than 100000 nM; with ACHN renal, more than 100000 nM; in the assay on CCRF-CEM leukemia, more than 100000 nM; in the assay with HL-60(TB) leukemia it was 150 nM; in the assay with HOP-62 NSCLC, more than 100000 nM; in the assay with MDA-MB-231 breast, more than 100000 nM. In addition, the TGI was more than 100000 nM in the assay with NCI-H23 lung, more than 100000 nM in the assay on PC-3 prostate, 464 nM with RXF 393 renal and 446 nM in the assay with SNB-75 CNS.
For the molecule `CN(C)c1cc2c(Nc3ccc4nc(Cc5ccccc5)[nH]c4c3)ncnc2cn1`, the GI50 with 786-0 renal is 12500 nM; in the assay on ACHN renal, 11800 nM; in the assay on CCRF-CEM leukemia, more than 18700 nM; with HL-60(TB) leukemia it was more than 25000 nM; in the assay on HOP-62 NSCLC it was more than 15600 nM; in the assay on MDA-MB-231 breast it was more than 17400 nM. In addition, the GI50 with NCI-H23 lung is more than 23900 nM; with PC-3 prostate it was more than 25000 nM; with RXF 393 renal it was 12000 nM; in the assay with SNB-75 CNS it was more than 13900 nM. For the same molecule, the TGI was more than 20300 nM with 786-0 renal; more than 25000 nM in the assay with ACHN renal; more than 25000 nM in the assay with CCRF-CEM leukemia; more than 25000 nM in the assay with HL-60(TB) leukemia; more than 25000 nM in the assay with HOP-62 NSCLC; more than 25000 nM in the assay with MDA-MB-231 breast. The TGI in the assay on NCI-H23 lung, with PC-3 prostate, in the assay with RXF 393 renal and with SNB-75 CNS was more than 25000 nM in each case.
As for `N#CC(NC12CC3CC(CC(C3)C1)C2)c1ccccc1` (stereo not given), the TGI with 786-0 renal, with ACHN renal, in the assay with CCRF-CEM leukemia, with HL-60(TB) leukemia, in the assay on HOP-62 NSCLC and in the assay on MDA-MB-231 breast was more than 100000 nM each time. Moreover, the TGI in the assay with NCI-H23 lung, with PC-3 prostate, in the assay on RXF 393 renal and with SNB-75 CNS was more than 100000 nM in each case.
Take `O=[N+]([O-])c1ccccc1S(=O)(=O)c1ccccc1[N+](=O)[O-]`: the TGI is more than 100000 nM in the assay with 786-0 renal; more than 100000 nM with ACHN renal; more than 100000 nM in the assay with CCRF-CEM leukemia; more than 100000 nM in the assay on HL-60(TB) leukemia; 87000 nM in the assay on HOP-62 NSCLC; more than 100000 nM in the assay with MDA-MB-231 breast. Besides, the TGI with NCI-H23 lung was more than 100000 nM; with PC-3 prostate it was more than 100000 nM; with RXF 393 renal it was 83800 nM; in the assay on SNB-75 CNS it was 43100 nM.
